Reference: patent US20130045952A1, “ABA Receptor Agonists for Increased Plant Stress Resistance” (Van Andel Research Institute, priority 2011, published 2013)

target: T1, His6-PYR1 / biotin-PP2C (Arabidopsis thaliana, UniProt O49686); assay: AlphaScreen luminescence proximity assay, PYR1-PP2C interaction; type: biochemical; details: 100 nM His6-PYR1, 100 nM biotin-PP2C, 100 μM agonist; normalized against a pyrabactin control
T1 construct: made in house; host or cells: E. coli is stated for PYL1, PYL2 and the PP2Cs, not expressly for PYR1
T1 sequence (O49686 1-191): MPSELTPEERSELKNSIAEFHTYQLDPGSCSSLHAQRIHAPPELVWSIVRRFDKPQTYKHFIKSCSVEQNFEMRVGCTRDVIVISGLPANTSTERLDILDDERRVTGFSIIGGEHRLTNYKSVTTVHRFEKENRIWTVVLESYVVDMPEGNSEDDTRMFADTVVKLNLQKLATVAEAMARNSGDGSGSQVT
Method: (§1) Mutant proteins were expressed as H6GST-fusion proteins and purified by glutathione sepharose chromatography. Protein-protein interactions were determined by luminescence proximity AlphaScreen assay. Biotinylated PP2C proteins for the luminescence proximity assay were generated by in vivo biotinylation of avitag-PP2C fusion proteins. PP2C phosphatase activity was measured by phosphate release from a SnRK2.6 phosphoprotein.
(§2) Interactions between PYR/PYL and PP2Cs were assessed by luminescence-proximity AlphaScreen technology (Perkin Elmer). Briefly, biotinylated PP2Cs were attached to streptavidin-coated donor beads, and H6-tagged PYR/PYL receptors were attached to nickel-chelated acceptor beads. The donor and acceptor beads were brought into proximity by the interactions between PYR/PYLs and PP2Cs, which were measured with and without ligands. When excited by a laser beam of 680 nm, the donor beam emits singlet oxygen that activates thioxene derivatives in the acceptor beads, which releases photons of 520-620 nm as the binding signal. The experiments were conducted with 100 nM of PP2Cs and PYR/PYL proteins in the presence of 5 ug/ml donor and acceptor beads in a buffer of 50 mM MOPS, pH7.4, 50 mM NaF, […], and 0.1 mg/ml bovine serum albumin. The results were based on an average of three experiments with standard errors typically less than 10% of the measurements.
(§3) Values were determined in different experiments and normalized against a pyrabactin control. Blank spaces mean no experimental data is available. Key (photon counts (binding signal units) in Alphascreen luminescence proximity assay): “+++ is >75,000; ++ is 25,000−75,000; + is <25,000.

SMILES | Stimulation of the interaction between PYR1 and PP2C (binding signal)
CSCCCC(NS(=O)(=O)c1ccc(Br)c2ccccc12)C(=O)O (stereo not shown) [Compound 3] | ++ (++ is 25,000−75,000)
O=C(CNS(=O)(=O)c1ccccc1)OCc1ccc(Cl)c(Cl)c1 [Compound 6] | ++ (++ is 25,000−75,000)
CCOC(=O)C1OC(NC(=O)CSc2nnc(-c3ccccc3OCC)o2)C(C#N)C1C (stereo not shown) [Compound 5] | + (+ is <25,000)

target: T2, His6-PYL1 / biotin-PP2C (Arabidopsis thaliana, UniProt Q8VZS8); assay: AlphaScreen luminescence proximity assay, PYL1-PP2C interaction; type: biochemical; details: 100 nM His6-PYL1, 100 nM biotin-PP2C, 100 μM agonist; normalized against a pyrabactin control
T2 construct: PYL1 (residues 36-211), PYL2 (residues 14-188), and HAB1 (residues 172-511) were prepared as recombinant proteins in E. coli; made in house; host or cells: E. coli
T2 sequence (Q8VZS8 36-211): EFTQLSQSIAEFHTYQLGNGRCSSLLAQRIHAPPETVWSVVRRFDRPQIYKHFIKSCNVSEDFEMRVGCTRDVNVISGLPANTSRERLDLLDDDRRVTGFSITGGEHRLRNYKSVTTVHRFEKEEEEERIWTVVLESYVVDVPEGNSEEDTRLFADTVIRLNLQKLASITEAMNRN
Method: as §1, §2, §3

SMILES | Stimulation of the interaction between PYL1 and PP2C (binding signal)
CCOC(=O)C1OC(NC(=O)CSc2nnc(-c3ccccc3OCC)o2)C(C#N)C1C (stereo not shown) [Compound 5] | + (+ is <25,000)

target: T3, His6-PYL2 / biotin-PP2C (Arabidopsis thaliana, UniProt O80992); assay: AlphaScreen luminescence proximity assay, PYL2-PP2C interaction; type: biochemical; details: 100 nM His6-PYL2, 100 nM biotin-PP2C, 100 μM agonist; normalized against a pyrabactin control
T3 construct: PYL2 (residues 14-188), and HAB1 (residues 172-511) were prepared as recombinant proteins in E. coli; made in house; host or cells: E. coli
T3 sequence (O80992 14-188): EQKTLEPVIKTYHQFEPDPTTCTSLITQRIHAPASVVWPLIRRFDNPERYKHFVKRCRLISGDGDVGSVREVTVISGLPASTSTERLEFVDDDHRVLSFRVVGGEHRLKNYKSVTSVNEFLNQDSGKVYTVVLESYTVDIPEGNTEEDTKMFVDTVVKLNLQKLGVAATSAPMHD
Method: as §1, §2, §3

SMILES | Stimulation of the interaction between PYL2 and PP2C (binding signal)
CSCCCC(NS(=O)(=O)c1ccc(Br)c2ccccc12)C(=O)O (stereo not shown) [Compound 3] | + (+ is <25,000)
O=C(CNS(=O)(=O)c1ccccc1)OCc1ccc(Cl)c(Cl)c1 [Compound 6] | + (+ is <25,000)
CCOC(=O)C1OC(NC(=O)CSc2nnc(-c3ccccc3OCC)o2)C(C#N)C1C (stereo not shown) [Compound 5] | ++ (++ is 25,000−75,000)

target: T4, His6-PYL3 / biotin-PP2C (Arabidopsis thaliana, UniProt Q9SSM7); assay: AlphaScreen luminescence proximity assay, PYL3-PP2C interaction; type: biochemical; details: 100 nM His6-PYL3, 100 nM biotin-PP2C, 100 μM agonist; normalized against a pyrabactin control
T4 construct: made in house; host or cells: not expressly stated for PYL3
T4 sequence (Q9SSM7 1-209): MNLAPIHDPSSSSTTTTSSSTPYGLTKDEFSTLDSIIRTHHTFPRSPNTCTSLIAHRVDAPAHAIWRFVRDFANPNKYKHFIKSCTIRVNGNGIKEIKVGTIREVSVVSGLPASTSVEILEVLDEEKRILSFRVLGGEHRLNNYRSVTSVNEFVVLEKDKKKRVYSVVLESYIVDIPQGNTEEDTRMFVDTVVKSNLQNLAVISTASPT
Method: as §1, §2, §3

SMILES | Stimulation of the interaction between PYL3 and PP2C (binding signal)
CSCCCC(NS(=O)(=O)c1ccc(Br)c2ccccc12)C(=O)O (stereo not shown) [Compound 3] | +++ (+++ is >75,000)
O=C(CNS(=O)(=O)c1ccccc1)OCc1ccc(Cl)c(Cl)c1 [Compound 6] | ++ (++ is 25,000−75,000)
CCOC(=O)C1OC(NC(=O)CSc2nnc(-c3ccccc3OCC)o2)C(C#N)C1C (stereo not shown) [Compound 5] | + (+ is <25,000)

target: T5, His6-PYR1 / biotin-ABI1 (Arabidopsis thaliana, UniProt O49686); assay: AlphaScreen dose response, PYR1-ABI1 interaction; type: biochemical; details: 100 nM His6-PYR1, 100 nM biotin-PP2C, 0-100 μM agonist; from dose response curves
T5 construct: made in house; host or cells: E. coli (stated for the PP2Cs; not expressly for PYR1)
T5 sequence (O49686 1-191): T1 sequence (O49686 1-191)
T5 sequence (P49597 117-434 partner limits assumed): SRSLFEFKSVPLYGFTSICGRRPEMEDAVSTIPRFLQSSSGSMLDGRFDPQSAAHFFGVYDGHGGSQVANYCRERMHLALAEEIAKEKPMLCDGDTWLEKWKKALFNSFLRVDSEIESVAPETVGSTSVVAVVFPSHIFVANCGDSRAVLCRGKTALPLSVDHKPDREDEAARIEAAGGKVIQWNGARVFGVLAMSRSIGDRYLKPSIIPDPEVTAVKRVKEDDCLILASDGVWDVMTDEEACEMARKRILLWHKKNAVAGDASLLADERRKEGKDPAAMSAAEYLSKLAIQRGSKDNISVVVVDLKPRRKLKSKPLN
Method: as §2
(§4) The results shown in Table 5b were calculated from the dose response curves of the dependence of the interaction between 100 nM His6-PYR1 and 100 nM biotin-PP2C on the presence of 0-100 μM agonists determined by AlphaScreen luminescence proximity assay. Key (EC50 in μM): ++++=<5.0 μM; +++=5-10 μM; ++=10-20 μM; and +=>20-60 μM.

SMILES | EC50
CSCCCC(NS(=O)(=O)c1ccc(Br)c2ccccc12)C(=O)O (stereo not shown) [Compound 3] | < 5 µM

target: T6, His6-PYR1 / biotin-ABI2 (Arabidopsis thaliana, UniProt O49686); assay: AlphaScreen dose response, PYR1-ABI2 interaction; type: biochemical; details: 100 nM His6-PYR1, 100 nM biotin-PP2C, 0-100 μM agonist; from dose response curves
T6 construct: made in house; host or cells: E. coli (stated for the PP2Cs; not expressly for PYR1)
T6 sequence (O49686 1-191): T1 sequence (O49686 1-191)
T6 sequence (O04719 101-423 partner limits assumed): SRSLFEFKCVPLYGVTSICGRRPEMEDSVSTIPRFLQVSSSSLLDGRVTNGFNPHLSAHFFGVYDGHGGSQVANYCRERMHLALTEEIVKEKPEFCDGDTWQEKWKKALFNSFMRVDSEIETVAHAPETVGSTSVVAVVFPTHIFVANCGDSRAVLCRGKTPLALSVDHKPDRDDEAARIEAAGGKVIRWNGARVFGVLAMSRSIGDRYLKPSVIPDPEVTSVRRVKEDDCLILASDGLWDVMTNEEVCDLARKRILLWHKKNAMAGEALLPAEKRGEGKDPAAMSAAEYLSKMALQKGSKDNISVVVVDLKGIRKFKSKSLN
Method: as §2, §4

SMILES | EC50
CSCCCC(NS(=O)(=O)c1ccc(Br)c2ccccc12)C(=O)O (stereo not shown) [Compound 3] | < 5 µM

target: T7, His6-PYR1 / biotin-HAB1 (Arabidopsis thaliana, UniProt O49686); assay: AlphaScreen dose response, PYR1-HAB1 interaction; type: biochemical; details: 100 nM His6-PYR1, 100 nM biotin-PP2C, 0-100 μM agonist; from dose response curves
T7 construct: made in house; host or cells: E. coli (stated for the PP2Cs; not expressly for PYR1)
T7 sequence (O49686 1-191): T1 sequence (O49686 1-191)
T7 sequence (Q9CAJ0 172-511 partner limits assumed): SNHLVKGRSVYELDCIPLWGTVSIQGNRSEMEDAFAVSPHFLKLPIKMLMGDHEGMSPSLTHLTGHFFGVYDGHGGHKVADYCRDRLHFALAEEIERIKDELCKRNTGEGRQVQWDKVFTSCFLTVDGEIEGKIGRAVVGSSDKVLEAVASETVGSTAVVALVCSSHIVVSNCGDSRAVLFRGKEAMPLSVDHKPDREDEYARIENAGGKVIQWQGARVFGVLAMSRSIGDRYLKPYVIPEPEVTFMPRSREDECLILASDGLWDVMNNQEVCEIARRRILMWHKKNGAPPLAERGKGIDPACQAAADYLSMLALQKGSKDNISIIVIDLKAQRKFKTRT
Method: as §2, §4

SMILES | EC50
CSCCCC(NS(=O)(=O)c1ccc(Br)c2ccccc12)C(=O)O (stereo not shown) [Compound 3] | < 5 µM

target: T8, ABI1 (Arabidopsis thaliana, UniProt O49686+P49597); assay: PP2C phosphatase activity assay, ABI1; type: biochemical; details: 200 nM PP2C; SnRK2.6 phosphopeptide substrate; None = 100
T8 construct: ABI1 (residues 117-434) and ABI2 (residues 101-423) were expressed as H6Sumo fusion proteins; H6Sumo (N); made in house; host or cells: E. coli BL21
T8 sequence (P49597 117-434 limits assumed): T5 sequence (P49597 117-434 partner limits assumed)
T8 sequence (O49686 1-191): T1 sequence (O49686 1-191)
Method: as §1
(§5) PP2Cs and PYR/PYL proteins were pre-incubated at the indicated concentrations in 50 mM imidazole, pH 7.2, 5 mM MgCl2, 0.1% β-mercaptoethanol and 0.5 mg/ml BSA for 30 min at room temperature. Reactions were started by addition of 100 μM of a phosphopeptide corresponding to amino acids 170-180 of SnRK2.6 (HSQPK^pSTVGTP). This peptide is phosphorylated at a single residue corresponding to Ser175 in SnRK2.6, whose phosphorylation is required for SnRK2.6 kinase activity^32. Phosphate release from ^pS175 from the phosphopeptide was determined by colorimetric assay (BioVision).

SMILES | % Phosphatase Activity ABI1
CSCCCC(NS(=O)(=O)c1ccc(Br)c2ccccc12)C(=O)O (stereo not shown) [Compound 3] | 7.7 ± 4.3%

target: T9, ABI2 (Arabidopsis thaliana, UniProt O04719+O49686); assay: PP2C phosphatase activity assay, ABI2; type: biochemical; details: 200 nM PP2C; SnRK2.6 phosphopeptide substrate; None = 100
T9 construct: ABI1 (residues 117-434) and ABI2 (residues 101-423) were expressed as H6Sumo fusion proteins; H6Sumo (N); made in house; host or cells: E. coli BL21
T9 sequence (O04719 101-423 limits assumed): T6 sequence (O04719 101-423 partner limits assumed)
T9 sequence (O49686 1-191): T1 sequence (O49686 1-191)
Method: as §1, §5

SMILES | % Phosphatase Activity ABI2
CSCCCC(NS(=O)(=O)c1ccc(Br)c2ccccc12)C(=O)O (stereo not shown) [Compound 3] | 7.0 ± 0.3%

target: T10, HAB1 (Arabidopsis thaliana, UniProt O49686+Q9CAJ0); assay: PP2C phosphatase activity assay, HAB1; type: biochemical; details: 200 nM PP2C; SnRK2.6 phosphopeptide substrate; None = 100
T10 construct: HAB1 (residues 172-511) were prepared as recombinant proteins in E. coli; H6GST or H6Sumo; made in house; host or cells: E. coli
T10 sequence (Q9CAJ0 172-511 limits assumed): T7 sequence (Q9CAJ0 172-511 partner limits assumed)
T10 sequence (O49686 1-191): T1 sequence (O49686 1-191)
Method: as §1, §5

SMILES | % Phosphatase Activity HAB1
CSCCCC(NS(=O)(=O)c1ccc(Br)c2ccccc12)C(=O)O (stereo not shown) [Compound 3] | 17.5 ± 0.6%
